According to PubChem BioAssay (NCI):
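Grown in 96-well plates, cells were treated for 48 hours with each compound at five concentrations. Insufficient inhibition: endpoint recorded as highest concentration tested. TGI marks complete inhibition of growth.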

Tests used:
Test in all cases: NCI tumour cell line growth inhibition, 48 h
[1] = system: A549 NSCLC
[2] = system: HS 578T breast
[3] = system: NCI-H522 lung
[4] = system: SK-MEL-5 melanoma
[5] = system: MCF7 breast
[6] = system: TK-10 renal
[7] = system: RXF 393 renal
[8] = system: 786-0 renal
[9] = system: EKVX NSCLC
[10] = system: NCI-H23 lung

COC(C)(C)C1(O)CC[C@@H](C)CC1=O (stereo not given in full)
TGI [1]: > 100 µM | TGI [2]: > 100 µM | TGI [3]: > 100 µM | TGI [4]: > 100 µM | TGI [5]: > 100 µM | TGI [6]: > 100 µM | TGI [7]: > 100 µM | TGI [8]: > 100 µM | TGI [9]: > 100 µM | TGI [10]: > 100 µM

O=C(O)c1ccccc1CC(Cc1ccc2c(c1)CCC2)C(=O)O (stereo not given)
TGI [1]: > 100 µM | TGI [2]: > 100 µM | TGI [3]: > 100 µM | TGI [4]: > 100 µM | TGI [5]: > 100 µM | TGI [6]: > 100 µM | TGI [7]: > 100 µM | TGI [8]: > 100 µM | TGI [9]: > 100 µM | TGI [10]: > 100 µM

COc1cc(OC)cc(C(=O)CC(=O)c2cc(OC)cc(OC)c2)c1
TGI [1]: > 100 µM | TGI [2]: > 100 µM | TGI [4]: > 100 µM | TGI [5]: > 100 µM | TGI [6]: > 100 µM | TGI [7]: > 100 µM | TGI [8]: > 100 µM | TGI [9]: > 100 µM | TGI [10]: > 100 µM

CC(=O)NC1C(OCc2ccccc2)OC(CO)C(O)C1OCC(=O)N[C@@H](C)C(=O)N[C@H](CCC(=O)NCCCNc1c2ccccc2nc2cccc([N+](=O)[O-])c12)C(N)=O (stereo not given in full)
TGI [2]: 0.675 µM | TGI [3]: 0.0383 µM | TGI [4]: 0.0383 µM | TGI [5]: 2.42 µM | TGI [6]: 1.55 µM | TGI [8]: 0.0795 µM | TGI [9]: 0.264 µM | TGI [10]: 0.0835 µM

COc1ccc(C2OC(c3ccncc3)=NN2C)cc1F (stereo not given)
TGI [1]: > 100 µM | TGI [2]: > 100 µM | TGI [3]: > 100 µM | TGI [4]: > 100 µM | TGI [5]: > 100 µM | TGI [6]: > 100 µM | TGI [7]: > 100 µM | TGI [8]: > 100 µM | TGI [9]: > 100 µM | TGI [10]: > 100 µM

O=C(O)CN1CCN2CCCCCN(CC1)CCN(CC(=O)O)CC2
TGI [1]: > 100 µM | TGI [2]: > 100 µM | TGI [3]: > 100 µM | TGI [4]: > 100 µM | TGI [5]: > 100 µM | TGI [6]: > 100 µM | TGI [8]: > 100 µM | TGI [9]: > 100 µM

NCCCN1c2ccccc2Sc2ccc(Cl)cc21
TGI [1]: > 10 µM | TGI [2]: > 10 µM | TGI [3]: > 5.15 µM | TGI [4]: > 5.52 µM | TGI [5]: 3.21 µM | TGI [6]: > 10 µM | TGI [7]: > 10 µM | TGI [8]: > 10 µM | TGI [9]: > 10 µM | TGI [10]: > 10 µM

Cc1cc(/N=C/c2ccc(N(C)C)cc2)n(-c2ccccc2)n1
TGI [1]: > 100 µM | TGI [2]: > 100 µM | TGI [3]: > 100 µM | TGI [4]: > 100 µM | TGI [5]: > 100 µM | TGI [6]: > 100 µM | TGI [7]: > 100 µM | TGI [8]: > 100 µM | TGI [9]: > 100 µM | TGI [10]: > 100 µM

O=c1[nH][nH]c(=O)n1CCCCCCn1c(=O)[nH][nH]c1=O
TGI [1]: > 100 µM | TGI [2]: > 100 µM | TGI [3]: > 100 µM | TGI [4]: > 100 µM | TGI [5]: > 100 µM | TGI [6]: > 100 µM | TGI [7]: > 100 µM | TGI [8]: > 100 µM | TGI [9]: > 100 µM | TGI [10]: > 100 µM

CCN1CN(c2ccccc2)C2(CCN(CC3COc4ccccc4O3)CC2)C1=O (stereo not given)
TGI [1]: > 100 µM | TGI [2]: 60.2 µM | TGI [3]: 40.8 µM | TGI [4]: 32.1 µM | TGI [5]: 77.6 µM | TGI [6]: > 100 µM | TGI [7]: 40 µM | TGI [8]: > 100 µM | TGI [10]: > 100 µM

C=C1C(=O)CC2C1CC(=O)/C(C)=C/CCC(C)(O)C2O (stereo not given)
TGI [1]: 46.5 µM | TGI [2]: 26.5 µM | TGI [3]: 3.04 µM | TGI [4]: 17.6 µM | TGI [5]: 8.38 µM | TGI [6]: 8.51 µM | TGI [7]: 11.6 µM | TGI [8]: 7.91 µM | TGI [9]: 34.3 µM | TGI [10]: 20.6 µM

NS(=O)(=O)c1ccc(NC(=S)/N=C/C2=C(O)c3ccccc3C2=O)cc1
TGI [1]: > 100 µM | TGI [2]: > 100 µM | TGI [3]: > 100 µM | TGI [4]: > 100 µM | TGI [5]: > 100 µM | TGI [6]: > 100 µM | TGI [7]: > 100 µM | TGI [8]: > 100 µM | TGI [9]: > 100 µM | TGI [10]: > 100 µM

Clc1ccc(-c2nnc3sc4nc5ccccc5c-4nn23)c(Cl)c1
TGI [1]: > 100 µM | TGI [2]: > 100 µM | TGI [3]: > 100 µM | TGI [4]: > 100 µM | TGI [5]: > 100 µM | TGI [6]: > 100 µM | TGI [7]: > 100 µM | TGI [8]: > 100 µM | TGI [9]: > 100 µM | TGI [10]: > 100 µM

O=C(O)[C@H]1CCCN1CP(=O)(O)CN1CCC[C@@H]1C(=O)O
TGI [1]: > 100 µM | TGI [2]: > 100 µM | TGI [3]: > 100 µM | TGI [4]: > 100 µM | TGI [5]: > 100 µM | TGI [7]: > 100 µM | TGI [8]: > 100 µM | TGI [9]: > 100 µM | TGI [10]: > 100 µM

O=[N+]([O-])C(=C(Nc1ccccc1)Nc1ccccc1)C(Cl)=C(Cl)Cl
TGI [1]: 35.2 µM | TGI [2]: 55.5 µM | TGI [3]: 39.6 µM | TGI [4]: 29.2 µM | TGI [5]: 34.4 µM | TGI [6]: 38 µM | TGI [7]: 31.8 µM | TGI [8]: 29.4 µM | TGI [9]: 33.1 µM | TGI [10]: 30 µM

OC[C@H]1O[C@@H]2O[C@@](COCc3ccccc3)([C@H](OCc3ccccc3)[C@H]2O)[C@@H]1OCc1ccccc1
TGI [1]: 29.3 µM | TGI [2]: 31.7 µM | TGI [3]: 31.6 µM | TGI [4]: 29.2 µM | TGI [5]: 38.8 µM | TGI [6]: 33.3 µM | TGI [8]: 30.7 µM | TGI [9]: 28 µM | TGI [10]: 34.1 µM

O=C1OC(C2Cc3ccc4ccccc4c3C2=O)c2ccccc21 (stereo not given)
TGI [1]: > 100 µM | TGI [2]: 88.9 µM | TGI [3]: > 100 µM | TGI [4]: 98.2 µM | TGI [5]: > 100 µM | TGI [6]: > 100 µM | TGI [7]: 49.5 µM | TGI [8]: > 100 µM | TGI [9]: > 100 µM

CCNC(=S)NNC(=O)C12CC3CC(CC(C3)C1)C2
TGI [1]: > 100 µM | TGI [2]: > 100 µM | TGI [3]: > 100 µM | TGI [4]: > 100 µM | TGI [5]: > 100 µM | TGI [6]: > 100 µM | TGI [7]: > 100 µM | TGI [8]: > 100 µM | TGI [10]: > 100 µM

O=C1c2cc(-c3ccccc3)cnc2S(=O)(=O)N1c1ccc(Br)cc1
TGI [1]: 49.3 µM | TGI [2]: 70.6 µM | TGI [3]: 54.6 µM | TGI [4]: > 100 µM | TGI [5]: > 100 µM | TGI [6]: > 100 µM | TGI [8]: > 100 µM | TGI [9]: > 100 µM | TGI [10]: > 100 µM

N[C@@H](Cc1ccccc1)C(=O)N1CCC[C@@H]1P(=O)(Oc1ccccc1)Oc1ccccc1
TGI [1]: > 100 µM | TGI [2]: > 100 µM | TGI [4]: > 100 µM | TGI [5]: > 100 µM | TGI [6]: > 100 µM | TGI [7]: > 100 µM | TGI [8]: > 100 µM | TGI [9]: > 100 µM | TGI [10]: > 100 µM

O=C(O)CN1CCNCCN(CC(=O)O)CCN(CC(=O)O)CCNCC1
TGI [1]: > 100 µM | TGI [2]: > 100 µM | TGI [3]: > 100 µM | TGI [4]: > 100 µM | TGI [5]: > 100 µM | TGI [6]: > 100 µM | TGI [8]: > 100 µM | TGI [9]: > 100 µM

O=C(NCP(=O)(Oc1ccccc1)Oc1ccccc1)OCc1ccccc1
TGI [1]: > 100 µM | TGI [2]: > 100 µM | TGI [3]: > 100 µM | TGI [4]: > 100 µM | TGI [5]: > 100 µM | TGI [6]: > 100 µM | TGI [8]: > 100 µM | TGI [9]: > 100 µM | TGI [10]: > 100 µM
